Test results published in US20060275816A1, “Methods for identifying drug pharmacology and toxicology” (priority 2005, published 2006).
“Also recorded” adds a separate entry of the source. Read-outs that look alike come from different tables or passages of the source.

Legend:
HepG2 cells [1] = assay: Apoptosis, Apo-ONE Homogeneous Caspase-3/7 Assay; format: cell-based, human; conditions: 24 hours
HepG2 cells [2] = assay: Cytotoxicity, CellTiter Blue Cell Viability Assay (LD50); format: cell-based
Experimental: FIG. 3 provides a graphical illustration of an experimental approach used to assess candidate compounds. (1) Cells were plated and allowed to adhere for one day. At that time various concentrations of compound were added to cells and incubated for an additional 72 hours. […] (2) Cells were plated as above and treated with compound at the predetermined LD50 concentration. Following 24 hours incubation in the presence of compound, cells were collected, RNA was harvested and 3) analyzed using the RiboChip.
In an embodiment, human hepatocellular carcinoma HepG2 cells were used to test the effect of a compound on liver biology and toxicology. […] In an embodiment, a single acute dose of a compound is used. […] The choice of high dose identifies the possible modes of toxicity and detects low-incidence responses.
Cells were maintained as recommended in Minimal Essential Medium (MEM) (Gibco-BRL, a Division of Invitrogen, Carlsbad, Calif.) with 10% fetal bovine serum (FBS, HyClone, Logan, Utah) supplemented with antibiotics in p150 plates at 37° C., 5% CO2. Cells were split 1:5 and fresh media added every 3 days.
Cytotoxicity was assessed using the Alamar Blue-based CellTiter™ Blue Cell Viability Assay (Promega, Madison, Wis.) to determine the viable cell fraction that remained following a 72 hour treatment period. Cells (˜8,000 cells/well) were plated in 96 well BioCoat collagen coated plates (Becton Dickinson, Franklin Lakes, N.J.) using standard media. […] Cells were then allowed to recover for 24 hours at 37° C., 5% CO2. A two (2) fold dilution series was prepared for each compound starting at 3.0 mM in MEM containing 0.1% BSA (instead of 10% FBS) but without phenol red or antibiotics. Following the cell recovery period, the media was removed and fresh media containing compound was added. Treatments were performed in triplicate for each compound at each dose. Cells were incubated with compound for 72 hours at 37° C., 5% CO2. The viable cell fraction remaining was determined by washing the wells with fresh media without indicator, lysing the remaining live cells by adding 0.9% Triton X-100 (Sigma, St. Louis, Mo.) in water, and performing the Alamar Blue assay as described in the CellTiter™ Blue Cell Viability Assay product literature.

[3] = patients; Lebovitz 2002; cited from earlier work
CCR2 mRNA = assay: Quantitative Real Time PCR of CCR2 mRNA in TZD-treated cells; conditions: HepG2 cells, LD50 concentration, 24 hours, compound alone
[4] = HepG2 cells, concentration giving 50% cell death after 72 hours

CCc1ccc(CCOc2ccc(CC3SC(=O)NC3=O)cc2)nc1 (stereo not drawn) [Pioglitazone]
induction of apoptosis (Caspase 3/7 activity) (HepG2 cells [1]): did not induce apoptosis at all or only modestly did so; also recorded: undetectable

CC1(COc2ccc(CC3SC(=O)NC3=O)cc2)CCCCC1 (stereo not drawn) [Ciglitazone]
cell death at 175 μM (HepG2 cells [2]): significant cell death | LD50 (HepG2 cells [2]; human, 72 h): 76 µM | induction of apoptosis (Caspase 3/7 activity) (HepG2 cells [1]): potent inducers of apoptosis

Cc1c(C)c2c(c(C)c1O)CCC(C)(COc1ccc(CC3SC(=O)NC3=O)cc1)O2 (stereo not drawn) [Troglitazone]
cell death at 175 μM (HepG2 cells [2]): significant cell death | LD50 (HepG2 cells [2]; [4]): 18 µM | induction of apoptosis (Caspase 3/7 activity) (HepG2 cells [1]): potent inducers of apoptosis | toxicity that ended marketing or development [3]: hepatotoxicity | increased CCR2 expression relative to control (CCR2 mRNA): 6 ×

CCCCCCCCCCCCCCC(Br)C(=O)O (stereo not drawn) [2-Bromohexadecanoic Acid]
LD50 (HepG2 cells [2]; [4]): 94 µM

CC(C)OC(=O)C(C)(C)Oc1ccc(C(=O)c2ccc(Cl)cc2)cc1 [Fenofibrate]
LD50 (HepG2 cells [2]; human, 72 h): 500 µM

CCCCC/C=C/C=C1/C(=O)C=C[C@@H]1C/C=C\CCCC(=O)O [15-Deoxy-Δ^12,14-Prostaglandin J2]
LD50 (HepG2 cells [2]): 34 µM

N-Acetly-Asp-Glu-Val-Asp-aldehyde [DEVD]
block of TZD-induced apoptosis (HepG2 cells [1]; co-administered with TZDs): efficiently blocked

CCCCC(CC)COC(=O)c1ccccc1C(=O)OCC(CC)CCCC (stereo not drawn) [Diethylhexylphthalate]
LD50 (HepG2 cells [2]; [4]): 34 µM

CCOC(=O)C(C)(C)Oc1ccc(Cl)cc1 [Clofibrate]
LD50 (HepG2 cells [2]; [4]): 240 µM

Cc1cccc(Nc2cc(Cl)nc(SCC(=O)O)n2)c1C [Wyeth14643]
LD50 (HepG2 cells [2]): 226 µM

Cc1ccc(C)c(OCCCC(C)(C)C(=O)O)c1 [Gemfibrozil]
LD50 (HepG2 cells [2]; [4]): 163 µM

CC(C)(Oc1ccc(CCNC(=O)c2ccc(Cl)cc2)cc1)C(=O)O [Bezafibrate]
LD50 (HepG2 cells [2]; [4]): 1940 µM

O=C(O)C(F)(F)C(F)(F)C(F)(F)C(F)(F)C(F)(F)C(F)(F)C(F)(F)F [Perfluourooctanoic Acid]
LD50 (HepG2 cells [2]; [4]): 191 µM

CN(CCOc1ccc(CC2SC(=O)NC2=O)cc1)c1ccccn1 (stereo not drawn) [Rosiglitazone]
induction of apoptosis (Caspase 3/7 activity) (HepG2 cells [1]): did not induce apoptosis at all or only modestly did so

O=C(Nc1ccccc1)c1cc([N+](=O)[O-])ccc1Cl [GW-9662]
LD50 (HepG2 cells [2]): 125 µM
